Source: ChEMBL document CHEMBL5150045, “Structure-Guided Design of Halofuginone Derivatives as ATP-Aided Inhibitors Against Bacterial Prolyl-tRNA Synthetase” (J Med Chem, 2022)
Values after ≈ are worked out from the molar mass of the structure shown.

How the values were obtained:
[1] = Inhibition of methicillin-resistant Staphylococcus aureus ProRS expressed in Escherichia coli assessed as generation of inorganic monophosphate by pre-transfer editing-based experiment
Staphylococcus aureus [2] = assay: Inhibition of methicillin-resistant Staphylococcus aureus ProRS expressed in Escherichia coli assessed as change in melting temperature in presence of AMPPNP at 0.5 mM by fluorescence-based thermal shift assay
Homo sapiens = species: Homo sapiens; assay: Inhibition of human ProRS expressed in Escherichia coli assessed as change in melting temperature in presence of AMPPNP at 0.5 mM by fluorescence-based thermal shift assay
Escherichia coli [3] = assay: Antibacterial activity against Escherichia coli ATCC25922 assessed as prevention of visible growth by broth microdilution method; format: functional
Shigella flexneri = assay: Antibacterial activity against Shigella flexneri CMCC51572 assessed as prevention of visible growth by broth microdilution method; format: functional
Salmonella typhi = assay: Antibacterial activity against Salmonella typhi CMCC50094 assessed as prevention of visible growth by broth microdilution method; format: functional, Salmonella enterica subsp. enterica serovar Typhi; settings: Salmonella enterica
Staphylococcus aureus [4] = assay: Antibacterial activity against methicillin-resistant Staphylococcus aureus 252 assessed as prevention of visible growth by broth microdilution method; format: functional
Staphylococcus aureus [5] = assay: Antibacterial activity against methicillin-resistant Staphylococcus aureus R3708 assessed as prevention of visible growth by broth microdilution method; format: functional
Staphylococcus aureus [6] = assay: Antibacterial activity against Staphylococcus aureus ATCC29213 assessed as prevention of visible growth by broth microdilution method; format: functional
Staphylococcus aureus [7] = assay: Antibacterial activity against Staphylococcus aureus ATCC25923 assessed as prevention of visible growth by broth microdilution method; format: functional
Staphylococcus aureus [8] = assay: Bactericidal activity against methicillin-resistant Staphylococcus aureus 252 assessed as bacterial killing measured after 24 hrs incubation by CLSI method; format: functional; settings: read-out: MBC99.9
Staphylococcus aureus [9] = assay: Ratio of MBC99.9 for methicillin-resistant Staphylococcus aureus 252 to MIC for methicillin-resistant Staphylococcus aureus 252; format: functional
Escherichia coli [10] = assay: Ratio of MBC99.9 for Escherichia coli ATCC25922 to MIC for Escherichia coli ATCC25922; format: functional

Row | Compound | IC50 [1] [µM] | ΔTm (Staphylococcus aureus [2]) [°C] | ΔTm (Homo sapiens) [°C] | MIC (Escherichia coli [3]) [µg/mL] | MIC (Shigella flexneri) [µg/mL] | MIC (Salmonella typhi) [µg/mL] | MIC (Staphylococcus aureus [4]) [µg/mL] | MIC (Staphylococcus aureus [5]) [µg/mL] | MIC (Staphylococcus aureus [6]) [µg/mL] | MIC (Staphylococcus aureus [7]) [µg/mL] | MBC (Staphylococcus aureus [8]) [µg/mL] | Ratio (Staphylococcus aureus [9]) | Ratio (Escherichia coli [10])
1 | O=c1c2ccccc2ncn1CCC[C@@H]1CCCCN1 | > 100 | 0 | 4.2 | > 64 | > 64 | > 64 | > 64 | > 64 | > 64 | > 64 | – | – | –
2 | O=C(C[C@@H]1CCCCN1)Cn1cnc2cc(F)c(F)cc2c1=O | 0.63 | 7.3 | 19.2 | 4 (≈ 12.4 µM) | 4 (≈ 12.4 µM) | 16 (≈ 49.8 µM) | 16 (≈ 49.8 µM) | 32 (≈ 99.6 µM) | 16 (≈ 49.8 µM) | 32 (≈ 99.6 µM) | 128 (≈ 398 µM) | 8 | 16
3 | O=c1c2cc(Cl)c(Cl)cc2ncn1CCC[C@@H]1CCCCN1 | 6.8 | 2 | 12.4 | > 64 | > 64 | > 64 | > 64 | > 64 | > 64 | > 64 | – | – | –
4 | CC1(C)S[C@@H]2[C@H](NC(=O)[C@H](N)c3ccccc3)C(=O)N2[C@H]1C(=O)O [AMPICILLIN] | – | – | – | – | 2 (≈ 5.72 µM) | 2 (≈ 5.72 µM) | – | – | – | – | – | – | –
5 | Cc1cc2ncn(CC(=O)C[C@@H]3CCCCN3)c(=O)c2cc1C | 17.6 | 1.3 | 13.9 | > 64 | > 64 | > 64 | > 64 | > 64 | > 64 | > 64 | – | – | –
6 | O=C(C[C@@H]1CCCCN1)Cn1cnc2cc(Cl)c(Cl)cc2c1=O | 0.51 | 7.9 | 18.9 | 16 (≈ 45.2 µM) | 16 (≈ 45.2 µM) | 32 (≈ 90.3 µM) | 4 (≈ 11.3 µM) | 4 (≈ 11.3 µM) | 8 (≈ 22.6 µM) | 16 (≈ 45.2 µM) | 64 (≈ 181 µM) | 16 | –
7 | O=C(C[C@@H]1CCCCN1)Cn1cnc2cccnc2c1=O | > 100 | 0 | 6.9 | > 64 | > 64 | > 64 | > 64 | > 64 | > 64 | > 64 | – | – | –
8 | O=C(C[C@@H]1CCCCN1)Cn1cnc2ccc(F)cc2c1=O | 8.2 | 6.3 | 17.9 | 16 (≈ 52.7 µM) | 16 (≈ 52.7 µM) | 32 (≈ 105 µM) | 32 (≈ 105 µM) | 32 (≈ 105 µM) | 32 (≈ 105 µM) | 32 (≈ 105 µM) | – | – | –
9 | O=C(C[C@@H]1CCCCN1)Cn1cnc2cc3c(cc2c1=O)OCO3 | 36.3 | 2.1 | 15.9 | > 64 | > 64 | > 64 | > 64 | > 64 | > 64 | > 64 | – | – | –
10 | O=C(C[C@@H]1CCCCN1)Cn1cnc2ccc(C(F)(F)F)cc2c1=O | > 100 | 1.2 | 9.9 | 64 (≈ 181 µM) | 64 (≈ 181 µM) | 64 (≈ 181 µM) | 64 (≈ 181 µM) | 64 (≈ 181 µM) | 32 (≈ 90.6 µM) | 64 (≈ 181 µM) | – | – | –
11 | O=c1c2cc(Cl)c(Br)cc2ncn1CC(O)C[C@@H]1CCCCN1 (some centres not stated) | > 100 | 0 | 11.9 | > 64 | > 64 | > 64 | > 64 | > 64 | > 64 | > 64 | – | – | –
12 | O=C(C[C@@H]1CCCCN1)Cn1cnc2ccccc2c1=O | 18.3 | 1.3 | 15.7 | 64 (≈ 224 µM) | 32 (≈ 112 µM) | 64 (≈ 224 µM) | 16 (≈ 56.1 µM) | 32 (≈ 112 µM) | 32 (≈ 112 µM) | 32 (≈ 112 µM) | – | – | –
13 | CC(C)(C)c1ccc2c(=O)n(CC(=O)C[C@@H]3CCCCN3)cnc2c1 | > 100 | 0 | 3.9 | > 64 | > 64 | > 64 | > 64 | > 64 | > 64 | > 64 | – | – | –
14 | O=c1c2cc(Cl)c(Br)cc2ncn1CCC[C@@H]1CCCCN1 | 12.4 | 2.5 | 15.1 | 64 (≈ 166 µM) | 64 (≈ 166 µM) | 64 (≈ 166 µM) | 64 (≈ 166 µM) | 64 (≈ 166 µM) | 32 (≈ 83.2 µM) | 64 (≈ 166 µM) | – | – | –
15 | O=C(C[C@@H]1CCCCN1)Cn1cnc2cc(F)ccc2c1=O | 1.71 | 6.9 | 18.1 | 16 (≈ 52.7 µM) | 8 (≈ 26.4 µM) | 32 (≈ 105 µM) | 32 (≈ 105 µM) | 32 (≈ 105 µM) | 32 (≈ 105 µM) | 32 (≈ 105 µM) | – | – | –
16 | O=C(C[C@@H]1CCCCN1)Cn1cnc2nccnc2c1=O | > 100 | 0 | 4.9 | > 64 | > 64 | > 64 | > 64 | > 64 | > 64 | > 64 | – | – | –
17 | O=C(C[C@@H]1CCCCN1)Cn1cnc2cccc(Cl)c2c1=O | 5.59 | 3 | 15.9 | > 64 | > 64 | > 64 | > 64 | > 64 | > 64 | > 64 | – | – | –
18 | O=C(C[C@@H]1CCCCN1)Cn1cnc2cc3ccccc3cc2c1=O | > 100 | 0 | 7.9 | > 64 | > 64 | > 64 | > 64 | > 64 | > 64 | > 64 | – | – | –
19 | O=C(C[C@@H]1CCCCN1)Cn1cnc2cc(Br)c(Cl)cc2c1=O | 0.61 | 6.2 | 17.9 | 32 (≈ 80.3 µM) | 16 (≈ 40.1 µM) | 32 (≈ 80.3 µM) | 16 (≈ 40.1 µM) | 16 (≈ 40.1 µM) | 16 (≈ 40.1 µM) | 32 (≈ 80.3 µM) | – | – | –
20 | COc1cc2ncn(CC(=O)C[C@@H]3CCCCN3)c(=O)c2cc1OC | > 100 | 0 | 4.2 | > 64 | > 64 | > 64 | > 64 | > 64 | > 64 | > 64 | – | – | –
21 | O=C(C[C@@H]1CCCCN1)Cn1cnc2cc(C(F)(F)F)ccc2c1=O | 1.28 | 3.4 | 16.9 | > 64 | > 64 | > 64 | > 64 | > 64 | > 64 | > 64 | – | – | –
